Among the test systems are ACHN renal; MOLT-4 leukemia; MDA-MB-435; NCI-H226 lung; OVCAR-4 ovarian; HOP-62 NSCLC; HCT-15 colon; M14 melanoma; SK-MEL-28 melanoma; HT29 colon.
Holding throughout (assay): DTP human tumour cell line panel, 48 h

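Assay format: 96-well plates, 48-hour exposure. Here, GI50 denotes the concentration required for 50% inhibition of growth. TGI: concentration producing complete growth inhibition.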

Broadly, the GI50 is the concentration that inhibits growth by half. As usually defined, the TGI is the concentration giving total growth inhibition. Lower therefore signals greater sensitivity of the cells.

With `C[As](C)Sc1ccnc(S[As](C)C)n1`, the GI50 in the test on ACHN renal was 1.85 µM; in the test with MOLT-4 leukemia, 1.43 µM; with MDA-MB-435, 1.8 µM; with NCI-H226 lung, 31.2 µM; with OVCAR-4 ovarian, 3.44 µM; in the test with HOP-62 NSCLC it was 19 µM. Also, the GI50 with HCT-15 colon is 0.928 µM; in the test on M14 melanoma, 3.94 µM; with SK-MEL-28 melanoma it was 2.67 µM; in the test with HT29 colon, 3.98 µM. For the same molecule, the TGI is 15.1 µM with ACHN renal; over 27.9 µM in the test on MDA-MB-435; over 100 µM in the test with NCI-H226 lung; 36.3 µM in the test on OVCAR-4 ovarian; over 46.3 µM in the test with HOP-62 NSCLC; 14.7 µM with HCT-15 colon. Also, the concentration for total growth inhibition (TGI) with M14 melanoma is over 44.9 µM; with SK-MEL-28 melanoma, 19.7 µM; in the test on HT29 colon it was over 39.3 µM.
Regarding `O=C(O)c1cc(N/C=C2\C(=O)c3ccccc3OC2O)ccc1O` (stereo not given), the GI50 in the test on ACHN renal is 28.3 mg/L; with MOLT-4 leukemia, 15.3 mg/L; in the test on MDA-MB-435, 23.3 mg/L; in the test with NCI-H226 lung it was 37.7 mg/L; with OVCAR-4 ovarian, 29 mg/L; with HOP-62 NSCLC, 29.8 mg/L. In addition, the GI50 is 15.7 mg/L in the test on HCT-15 colon, 25.4 mg/L in the test with M14 melanoma, 31.8 mg/L with SK-MEL-28 melanoma and 28.8 mg/L in the test with HT29 colon. The TGI with ACHN renal was 82.7 mg/L; in the test on MOLT-4 leukemia, 72 mg/L; in the test on MDA-MB-435, 79.2 mg/L; with NCI-H226 lung, 98.1 mg/L; in the test on OVCAR-4 ovarian it was over 150 mg/L; in the test with HOP-62 NSCLC, 75.3 mg/L. Besides, the TGI amounted to 44.7 mg/L in the test with HCT-15 colon, 66.1 mg/L in the test on M14 melanoma, 113 mg/L in the test on SK-MEL-28 melanoma and 71.6 mg/L in the test with HT29 colon.
Consider `COc1cc(C(=O)NC2CCN(C)CC2)ccc1Nc1ncc2c(n1)N(C1CCCC1)CC(F)(F)C(=O)N2C`, for which the GI50 in the test with ACHN renal is 0.542 µM; in the test with MOLT-4 leukemia it was under 0.01 µM; with MDA-MB-435, under 0.01 µM; in the test with NCI-H226 lung, 2.17 µM; in the test with OVCAR-4 ovarian, 0.264 µM; in the test with HOP-62 NSCLC it was under 0.0167 µM. The GI50 was 0.468 µM with HCT-15 colon, under 0.0148 µM in the test on M14 melanoma, 0.0293 µM with SK-MEL-28 melanoma and under 0.01 µM in the test on HT29 colon. In addition, the TGI in the test on ACHN renal was 14.9 µM; in the test with MOLT-4 leukemia it was 1.79 µM; with MDA-MB-435 it was under 0.01 µM; in the test on NCI-H226 lung it was 14.3 µM; in the test with OVCAR-4 ovarian it was 12.5 µM; in the test with HOP-62 NSCLC it was 2.61 µM. Also, the TGI in the test with HCT-15 colon was determined as 13.7 µM; in the test with M14 melanoma, 5.09 µM; in the test with SK-MEL-28 melanoma it was 12.1 µM; in the test on HT29 colon, 11.1 µM.
Turning to `Fc1ccc(CNc2c3ccccc3nc3ccccc23)cc1`, the GI50 in the test on ACHN renal was 1.93 µM; in the test with MOLT-4 leukemia, 2.9 µM; in the test on MDA-MB-435, 1.89 µM; in the test with NCI-H226 lung, 2 µM; with OVCAR-4 ovarian, 2.05 µM; with HOP-62 NSCLC, 3.58 µM. Besides, the GI50 in the test with HCT-15 colon was 1.98 µM; with M14 melanoma, 2.97 µM; with SK-MEL-28 melanoma, 3.27 µM; in the test with HT29 colon, 2.27 µM. Further, the TGI in the test on ACHN renal amounted to 5.64 µM; in the test on MOLT-4 leukemia, 10.8 µM; in the test on MDA-MB-435, 4.07 µM; in the test on NCI-H226 lung, 5.44 µM; in the test with OVCAR-4 ovarian, 7.34 µM; with HOP-62 NSCLC, 16.7 µM. The TGI with HCT-15 colon was 5.31 µM; in the test with M14 melanoma it was 12.4 µM; in the test with SK-MEL-28 melanoma, 11.6 µM; with HT29 colon, 9.54 µM.
Consider `COc1ccc(Nc2c3c4c(cccc4[nH]c2=O)C(=O)c2ccccc2-3)cc1`, for which the concentration for 50% growth inhibition (GI50) in the test with ACHN renal was 0.0406 µM; in the test on MOLT-4 leukemia, 0.558 µM; in the test on MDA-MB-435, 0.0335 µM; with NCI-H226 lung it was 1.2 µM; in the test with OVCAR-4 ovarian, 0.971 µM; with HOP-62 NSCLC it was 0.0457 µM. The GI50 in the test with HCT-15 colon was 0.0271 µM; in the test with M14 melanoma it was under 0.0192 µM; with SK-MEL-28 melanoma, 11 µM; in the test on HT29 colon, under 0.01 µM. Besides, the TGI in the test with ACHN renal, with MDA-MB-435, with NCI-H226 lung, in the test on OVCAR-4 ovarian, in the test on HOP-62 NSCLC and in the test with HCT-15 colon was over 100 µM in each case. For the same molecule, the TGI in the test on M14 melanoma and in the test with SK-MEL-28 melanoma was over 100 µM each time.
As for `CN(CCCCCl)P(=O)(OCc1ccc([N+](=O)[O-])o1)C(F)(F)c1ccc(CC(=O)N[C@@H](CC(=O)O)C(=O)N[C@@H](Cc2ccc(C(F)(F)P(=O)(OCc3ccc([N+](=O)[O-])o3)N(C)CCCCCl)cc2)C(N)=O)cc1` (stereo not given in full), the GI50 in the test on ACHN renal is over 100 µM; in the test with MOLT-4 leukemia, 31.4 µM; in the test with MDA-MB-435 it was 49.1 µM; in the test on NCI-H226 lung, over 100 µM; in the test with OVCAR-4 ovarian it was 39.1 µM; with HOP-62 NSCLC, over 100 µM. Also, the GI50 was over 100 µM in the test with HCT-15 colon, 42.4 µM in the test on SK-MEL-28 melanoma and 60.4 µM in the test with HT29 colon. For the same molecule, the TGI in the test with ACHN renal is over 100 µM; in the test on MOLT-4 leukemia, 91.2 µM; in the test on MDA-MB-435, over 100 µM; with NCI-H226 lung, over 100 µM; in the test on OVCAR-4 ovarian, over 100 µM; in the test with HOP-62 NSCLC, over 100 µM. Besides, the TGI in the test on HCT-15 colon, in the test with SK-MEL-28 melanoma and in the test with HT29 colon was over 100 µM in each case.
Consider `O=C(c1ccccc1)c1ccc(Cl)c([N+](=O)[O-])c1`, for which the GI50 in the test with ACHN renal is 7.14 µM; with MOLT-4 leukemia, 4.17 µM; with MDA-MB-435 it was 4.53 µM; in the test on NCI-H226 lung, 19.8 µM; in the test on OVCAR-4 ovarian, 1.73 µM; in the test on HOP-62 NSCLC, 13.8 µM. For the same molecule, the GI50 in the test with HCT-15 colon is 2.95 µM; in the test on M14 melanoma, 4.37 µM; in the test with SK-MEL-28 melanoma, 5.59 µM; in the test on HT29 colon, 3.43 µM. The concentration for total growth inhibition (TGI) with ACHN renal is 21.3 µM; in the test with MOLT-4 leukemia it was 22.3 µM; in the test with MDA-MB-435 it was 17.1 µM; with NCI-H226 lung it was 51.7 µM; in the test with OVCAR-4 ovarian, 3.13 µM; in the test on HOP-62 NSCLC, 28.8 µM. The TGI in the test on HCT-15 colon stood at 9.86 µM; in the test on M14 melanoma, 17.8 µM; in the test on SK-MEL-28 melanoma, 19 µM; with HT29 colon, 11.1 µM.

(Values after PubChem BioAssay (NCI).)
